Drawing on ChEMBL document CHEMBL4814003, “Novel dual-mode antitumor chlorin-based derivatives as potent photosensitizers and histone deacetylase inhibitors for photodynamic therapy and chemotherapy” (Eur J Med Chem, 2021), this text covers IC50 and Activity for 13 compounds.

For assay [1], the system named is HCT-116. Kind of assay: Dark toxicity in human HCT-116 cells assessed as reduction in cell viability incubated under dark for 48 hrs measured after 48 hrs by CCK8 assay. The class given is functional, cell-based. To be noted: HCT-116, 48 h. For orientation: Tetrazolium dyes change colour on reduction, which living cells bring about.
The target in a further assay is Histone deacetylase 1 (Homo sapiens, UniProt Q13547). Kind of assay: Inhibition of human recombinant HDAC1 using Ac-Leu-Gly-Lys(Ac)-AMC as substrate by measuring fluorescence intensity incubated for 30 mins by microplate reader assay.
Assay [2] deals with HCT-116. Kind of assay: Phototoxicity in human HCT-116 cells assessed as reduction in cell viability irradiated 10 j/cm2 for 24 hrs followed by incubated for 24 hrs by CCK8 assay. The class given is functional, cell-based. To be noted: HCT-116, light or radiation study.
Assay [3] concerns A549. In words: Dark toxicity in human A549 cells assessed as reduction in cell viability incubated under dark for 48 hrs measured after 48 hrs by CCK8 assay. It counts as functional, cell-based. To be noted: A549, 48 h.
Assay [4] relates to A549. Kind of assay: Phototoxicity in human A549 cells assessed as reduction in cell viability irradiated 10 j/cm2 for 24 hrs followed by incubated for 24 hrs by CCK8 assay. The class given is functional, cell-based. To be noted: A549, light or radiation study.
The subject of assay [5] is A549. In words: Induction of reactive oxygen species generation in human A549 cells assessed as mean count value at 0.05 uM incubated for 24 hrs by DCFH-DA staining based fluorescence microscopy assay. The class given is functional.
The test system of assay [6] is A549. Kind of assay: Induction of reactive oxygen species generation in human A549 cells assessed as mean count value at 0.01 uM incubated for 24 hrs by DCFH-DA staining based fluorescence microscopy assay. It counts as functional.
The test system of assay [7] is A549. Kind of assay: Induction of autophagy in human A549 cells irradiated 10 j/cm2 at 0.1 uM after 24 hrs using fluorescent molecule DAPRed. It counts as functional.

Sequence of Histone deacetylase 1 (Q13547 whole entry): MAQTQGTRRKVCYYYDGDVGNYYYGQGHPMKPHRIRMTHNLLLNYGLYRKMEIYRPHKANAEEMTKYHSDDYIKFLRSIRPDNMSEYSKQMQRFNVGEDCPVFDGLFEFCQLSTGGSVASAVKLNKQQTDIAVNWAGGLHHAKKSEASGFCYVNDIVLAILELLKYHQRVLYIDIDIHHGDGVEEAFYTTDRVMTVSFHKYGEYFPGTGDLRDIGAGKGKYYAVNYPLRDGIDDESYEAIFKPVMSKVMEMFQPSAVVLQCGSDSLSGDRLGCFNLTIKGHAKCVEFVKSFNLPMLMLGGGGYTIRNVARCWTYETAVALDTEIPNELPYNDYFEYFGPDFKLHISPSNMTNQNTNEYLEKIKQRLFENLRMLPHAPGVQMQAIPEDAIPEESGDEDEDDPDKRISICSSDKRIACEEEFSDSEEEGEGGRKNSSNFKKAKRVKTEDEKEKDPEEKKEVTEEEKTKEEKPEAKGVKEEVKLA

`C=Cc1c(C)c2cc3nc(c(C(=O)OC)c4[nH]c(cc5nc(cc1[nH]2)C(C)=C5CC)c(C)c4C(=O)OC)[C@@H](CCC(=O)NCCCCC(=O)NO)[C@@H]3C`: the IC50 in the assay with HCT-116 [1] came out at 2810 nM; on Histone deacetylase 1, 49000 nM; in the assay on HCT-116 [2] it was 108 nM; with A549 [3], 1510 nM; in the assay on A549 [4] it was 180 nM.

With `C=Cc1c(C)c2cc3nc(c(C(=O)OC)c4[nH]c(cc5nc(cc1[nH]2)C(C)=C5CC)c(C)c4C(=O)OC)[C@@H](CCC(=O)Nc1ccccc1N)[C@@H]3C`, the IC50 came to 4140 nM with HCT-116 [1]; 224000 nM at Histone deacetylase 1; 23 nM in the assay on HCT-116 [2]; 590 nM with A549 [3]; 180 nM in the assay on A549 [4].

Take `C=Cc1c(C)c2cc3nc(c(C(=O)OC)c4[nH]c(cc5nc(cc1[nH]2)C(C)=C5CC)c(C)c4C(=O)OC)[C@@H](CCC(=O)Nc1ccc(C(=O)NO)cc1)[C@@H]3C`: the concentration for half-maximal inhibition (IC50) with HCT-116 [1] stood at 3490 nM; on Histone deacetylase 1, 11000 nM; in the assay on HCT-116 [2], 270 nM; in the assay with A549 [3] it was 930 nM; in the assay with A549 [4], 130 nM.

For `C=Cc1c(C)c2cc3nc(c(C(=O)OC)c4[nH]c(cc5nc(cc1[nH]2)C(C)=C5CC)c(C)c4C(=O)OC)[C@@H](CCC(=O)NCCCCC(=O)Nc1ccccc1N)[C@@H]3C`, the IC50 with HCT-116 [1] came out at 8630 nM; on Histone deacetylase 1, 81000 nM; with HCT-116 [2], 260 nM; in the assay with A549 [3], 3510 nM; in the assay with A549 [4] it was 300 nM.

Consider `C=Cc1c(C)c2cc3nc(c(C(=O)OC)c4[nH]c(cc5nc(cc1[nH]2)C(C)=C5CC)c(C)c4C(=O)OC)[C@@H](CCC(=O)O)[C@@H]3C`, for which the IC50 turned out to be 31300 nM in the assay with HCT-116 [1], 520 nM with HCT-116 [2], 15700 nM in the assay on A549 [3] and 300 nM with A549 [4].

Take `C=Cc1c(C)c2cc3nc(cc4[nH]c(cc5nc(cc1[nH]2)C(C)=C5CC)c(C)c4C(=O)OC)[C@@H](CCC(=O)Nc1ccc(C(=O)NO)cc1)[C@@H]3C`: the IC50 was found to be 4600 nM in the assay with HCT-116 [1]; 28000 nM at Histone deacetylase 1; 31 nM in the assay with HCT-116 [2]; 9240 nM in the assay with A549 [3]; 900 nM in the assay on A549 [4].

In the case of `C=Cc1c(C)c2cc3nc(c(C(=O)OC)c4[nH]c(cc5nc(cc1[nH]2)C(C)=C5CC)c(C)c4C(=O)OC)[C@@H](CCC(=O)NCCCC(=O)NO)[C@@H]3C`, the IC50 in the assay on HCT-116 [1] is 5540 nM; on Histone deacetylase 1, 40000 nM; with HCT-116 [2], 220 nM; in the assay on A549 [3], 1840 nM; in the assay on A549 [4], 220 nM.

For `C=Cc1c(C)c2cc3nc(c(CC(=O)N[C@@H](CC(=O)O)C(=O)O)c4[nH]c(cc5nc(cc1[nH]2)C(C)=C5CC)c(C)c4C(=O)O)[C@@H](CCC(=O)O)[C@@H]3C` [TALAPORFIN], the IC50 in the assay on HCT-116 [1] came out at 50700 nM; in the assay with HCT-116 [2], 2950 nM; in the assay on A549 [3], 181000 nM; in the assay on A549 [4], 6210 nM. In addition, the Activity in the assay on A549 [5] was determined as 153.14; in the assay with A549 [6] it was 125.93; in the assay on A549 [7], 19.08%.

Regarding `C=Cc1c(C)c2cc3nc(c(C(=O)OC)c4[nH]c(cc5nc(cc1[nH]2)C(C)=C5CC)c(C)c4C(=O)OC)[C@@H](CCC(=O)NCCCCCC(=O)Nc1ccccc1N)[C@@H]3C`, the IC50 in the assay with HCT-116 [1] was 9280 nM; on Histone deacetylase 1 it was 90000 nM; with HCT-116 [2] it was 210 nM; in the assay with A549 [3], 2670 nM; in the assay with A549 [4], 230 nM.

For the compound `C=Cc1c(C)c2cc3nc(c(C(=O)OC)c4[nH]c(cc5nc(cc1[nH]2)C(C)=C5CC)c(C)c4C(=O)OC)[C@@H](CCC(=O)NCCCC(=O)Nc1ccccc1N)[C@@H]3C`, the IC50 in the assay on HCT-116 [1] amounted to 9140 nM; at Histone deacetylase 1, 201000 nM; in the assay with HCT-116 [2] it was 330 nM; in the assay on A549 [3], 3730 nM; with A549 [4] it was 310 nM.

In the case of `C=Cc1c(C)c2cc3nc(c(C(=O)OC)c4[nH]c(cc5nc(cc1[nH]2)C(C)=C5CC)c(C)c4C(=O)OC)[C@@H](CCC(=O)NCCCCCC(=O)NO)[C@@H]3C`, the half-inhibitory concentration (IC50) with HCT-116 [1] was found to be 6890 nM; on Histone deacetylase 1, 88000 nM; with HCT-116 [2], 39 nM; in the assay on A549 [3], 1360 nM; in the assay with A549 [4] it was 120 nM.

For `C=Cc1c(C)c2cc3nc(c(C(=O)OC)c4[nH]c(cc5nc(cc1[nH]2)C(C)=C5CC)c(C)c4C(=O)OC)[C@@H](CCC(=O)NO)[C@@H]3C`, the IC50 in the assay with HCT-116 [1] is 4180 nM; at Histone deacetylase 1, 79000 nM; with HCT-116 [2], 11 nM; in the assay with A549 [3], 370 nM; in the assay on A549 [4], 130 nM.

Take `C=Cc1c(C)c2cc3nc(cc4[nH]c(cc5nc(cc1[nH]2)C(C)=C5CC)c(C)c4C(=O)OC)[C@@H](CCC(=O)O)[C@@H]3C`: the IC50 in the assay with HCT-116 [1] amounted to 21800 nM; with HCT-116 [2], 1470 nM; in the assay on A549 [3], 15300 nM; with A549 [4] it was 920 nM.

The IC50 is the concentration that inhibits the measured activity by half.
